According to ChEMBL document CHEMBL5291721, “A preclinical secondary pharmacology resource illuminates target-adverse drug reaction associations of marketed drugs” (Nat Commun, 2023):

Key:
[1] = molecular target: T1, Muscarinic acetylcholine receptor M1 (Homo sapiens, UniProt P11229); type: functional, cell-based
T1 sequence (P11229 whole entry): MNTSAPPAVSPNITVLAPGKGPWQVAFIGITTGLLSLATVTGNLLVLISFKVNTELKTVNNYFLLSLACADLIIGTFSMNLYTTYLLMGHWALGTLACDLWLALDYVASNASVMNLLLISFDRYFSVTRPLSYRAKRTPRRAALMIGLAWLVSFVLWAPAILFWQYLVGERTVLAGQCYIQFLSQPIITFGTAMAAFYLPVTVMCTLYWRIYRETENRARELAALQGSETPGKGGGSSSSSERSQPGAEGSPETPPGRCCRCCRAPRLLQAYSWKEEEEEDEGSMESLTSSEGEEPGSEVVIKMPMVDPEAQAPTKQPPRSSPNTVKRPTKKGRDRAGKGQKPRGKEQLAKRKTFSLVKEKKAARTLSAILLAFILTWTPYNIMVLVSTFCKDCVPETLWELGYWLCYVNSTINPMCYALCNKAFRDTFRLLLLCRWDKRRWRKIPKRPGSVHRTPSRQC

[2] = molecular target: T2, Cholecystokinin receptor type A (Homo sapiens, UniProt P32238)
T2 sequence (P32238 whole entry): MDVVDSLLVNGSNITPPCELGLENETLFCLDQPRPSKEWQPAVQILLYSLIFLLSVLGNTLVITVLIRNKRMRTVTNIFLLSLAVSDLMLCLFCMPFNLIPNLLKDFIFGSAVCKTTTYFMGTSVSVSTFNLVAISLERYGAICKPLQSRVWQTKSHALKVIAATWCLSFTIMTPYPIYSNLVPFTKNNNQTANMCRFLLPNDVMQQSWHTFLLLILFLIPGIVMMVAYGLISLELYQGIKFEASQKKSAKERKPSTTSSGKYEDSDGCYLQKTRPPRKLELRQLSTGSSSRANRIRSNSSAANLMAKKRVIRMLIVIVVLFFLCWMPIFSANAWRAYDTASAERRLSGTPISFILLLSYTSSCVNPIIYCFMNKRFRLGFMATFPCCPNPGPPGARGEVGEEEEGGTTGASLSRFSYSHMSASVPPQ

Cannabinoid receptor 1 = Cannabinoid receptor 1 (Homo sapiens, UniProt P21554); type: functional, cell-based
Mu-type opioid receptor = Mu-type opioid receptor (Homo sapiens, UniProt P35372); assay: biochemical; type: functional
[3] = molecular target: T3, 5-hydroxytryptamine receptor 1A (Homo sapiens, UniProt P08908)
T3 sequence (P08908 whole entry): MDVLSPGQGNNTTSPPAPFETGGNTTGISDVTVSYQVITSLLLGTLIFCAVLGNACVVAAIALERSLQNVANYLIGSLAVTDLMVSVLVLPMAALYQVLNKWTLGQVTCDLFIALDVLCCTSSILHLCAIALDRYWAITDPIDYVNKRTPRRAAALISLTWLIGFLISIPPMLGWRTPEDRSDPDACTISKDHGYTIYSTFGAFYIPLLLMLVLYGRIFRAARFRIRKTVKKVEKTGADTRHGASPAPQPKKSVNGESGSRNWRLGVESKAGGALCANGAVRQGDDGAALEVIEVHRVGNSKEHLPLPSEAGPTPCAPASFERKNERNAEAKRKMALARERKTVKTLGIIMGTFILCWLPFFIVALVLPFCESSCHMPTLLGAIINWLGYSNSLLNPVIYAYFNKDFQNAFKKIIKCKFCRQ
Also: assay procedure not described here.

Sequence of Mu-type opioid receptor (P35372 whole entry): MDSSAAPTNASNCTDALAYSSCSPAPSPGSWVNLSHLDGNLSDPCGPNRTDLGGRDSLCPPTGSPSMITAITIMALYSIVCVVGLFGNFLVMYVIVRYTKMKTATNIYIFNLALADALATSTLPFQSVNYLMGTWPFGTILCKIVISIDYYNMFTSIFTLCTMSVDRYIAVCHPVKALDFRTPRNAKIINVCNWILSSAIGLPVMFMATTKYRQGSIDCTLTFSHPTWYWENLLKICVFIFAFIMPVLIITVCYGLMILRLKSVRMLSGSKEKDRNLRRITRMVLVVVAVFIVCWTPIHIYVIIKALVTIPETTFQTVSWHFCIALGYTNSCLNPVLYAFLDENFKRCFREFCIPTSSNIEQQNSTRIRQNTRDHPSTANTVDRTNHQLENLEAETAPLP
Sequence of Cannabinoid receptor 1 (P21554 whole entry): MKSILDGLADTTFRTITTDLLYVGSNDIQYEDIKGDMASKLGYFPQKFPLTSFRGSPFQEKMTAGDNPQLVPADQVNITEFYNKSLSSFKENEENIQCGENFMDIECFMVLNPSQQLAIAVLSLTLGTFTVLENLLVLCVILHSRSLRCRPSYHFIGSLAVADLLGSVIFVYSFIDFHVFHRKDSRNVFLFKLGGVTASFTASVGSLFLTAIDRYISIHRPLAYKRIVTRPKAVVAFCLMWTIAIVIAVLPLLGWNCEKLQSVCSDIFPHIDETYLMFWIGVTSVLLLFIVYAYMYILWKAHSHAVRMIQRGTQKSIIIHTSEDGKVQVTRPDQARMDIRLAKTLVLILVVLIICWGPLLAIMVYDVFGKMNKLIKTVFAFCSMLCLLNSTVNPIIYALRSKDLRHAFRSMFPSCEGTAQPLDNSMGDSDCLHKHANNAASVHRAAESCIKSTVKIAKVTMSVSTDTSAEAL

| SMILES | AC50 [1] [µM] | AC50 [2] [µM] | AC50 (Cannabinoid receptor 1) [µM] | other results |
| --- | --- | --- | --- | --- |
| CC[C@@H]1C[C@]1(NC(=O)[C@@H]1C[C@@H]2CN1C(=O)[C@H](C(C)(C)C)NC(=O)OCC(C)(C)CCCCc1cccc3c1CN(C3)C(=O)O2)C(=O)NS(=O)(=O)C1CC1 | > 3 | – | – | – |
| CCOc1cc([C@@H](CS(C)(=O)=O)N2C(=O)c3cccc(NC(C)=O)c3C2=O)ccc1OC | – | > 30 | > 30 | – |
| CC(=O)NO [ACETOHYDROXAMIC ACID] | > 30 | – | – | – |
| CC(=O)NCCCCCC(=O)O [ACEXAMIC ACID] | > 30 | – | – | – |
| CC(=O)Nc1ccc(CC(=O)O)cc1 [ACTARIT] | – | > 30 | > 30 | AC50 (Mu-type opioid receptor): > 30 µM |
| C=C(C)CNc1ccc(C(C)C(=O)O)cc1 (configuration not stated) [ALMINOPROFEN] | > 30 | – | – | – |
| C[C@H]1CN(C[C@H](Cc2ccccc2)C(=O)NCC(=O)O)CC[C@@]1(C)c1cccc(O)c1 [ALVIMOPAN] | > 30 | – | – | – |
| CC(C(=O)O)c1ccc2oc(-c3ccc(Cl)cc3)nc2c1 (configuration not stated) [BENOXAPROFEN] | – | > 30 | > 30 | AC50 (Mu-type opioid receptor): > 30 µM |
| CC1(C)S[C@@H]2[C@H](NC(=O)C(C(=O)O)c3ccccc3)C(=O)N2[C@H]1C(=O)O (some centres not stated) [CARBENICILLIN] | – | > 30 | > 30 | AC50 (Mu-type opioid receptor): > 30 µM |
| Cc1nnc(SCC2=C(C(=O)O)N3C(=O)[C@@H](NC(=O)Cn4cnnn4)[C@H]3SC2)s1 [CEFAZOLIN] | – | > 300 | > 300 | AC50 (Mu-type opioid receptor): > 30 µM |
| CC=CC1=C(C(=O)O)N2C(=O)[C@@H](NC(=O)[C@H](N)c3ccc(O)cc3)[C@H]2SC1 [CEFPROZIL] | – | > 30 | – | AC50 (Mu-type opioid receptor): > 30 µM |
| CC(C)(O/N=C(\C(=O)N[C@@H]1C(=O)N2C(C(=O)[O-])=C(C[n+]3ccccc3)CS[C@H]12)c1csc(N)n1)C(=O)O [CEFTAZIDIME] | – | > 300 | > 300 | AC50 (Mu-type opioid receptor): > 30 µM |
| CC(C)NC(=N)NC(=N)Nc1ccc(Cl)c(Cl)c1 [CHLORPROGUANIL] | – | – | > 30 | AC50 (Mu-type opioid receptor): > 30 µM |
| C[N+](C)(C)CCOP(=O)(O)OP(=O)([O-])OC[C@H]1O[C@@H](n2ccc(N)nc2=O)[C@H](O)[C@@H]1O [CITICOLINE] | > 30 | – | > 30 | AC50 (Mu-type opioid receptor): > 30 µM |
| Clc1ccc(Cn2c(CN3CCCC3)nc3ccccc32)cc1 [CLEMIZOLE] | – | > 30 | > 30 | – |
| CCC(=O)O[C@]1(C(=O)CCl)[C@@H](C)C[C@H]2[C@@H]3CCC4=CC(=O)C=C[C@]4(C)[C@@]3(F)[C@@H](O)C[C@@]21C [CLOBETASOL PROPIONATE] | – | > 30 | > 30 | AC50 (Mu-type opioid receptor): > 30 µM |
| C[C@H]1O[C@@H](O[C@H]2CC[C@@]3(C)[C@H](CC[C@@H]4[C@@H]3C[C@@H](O)[C@]3(C)[C@@H](C5=CC(=O)OC5)CC[C@]43O)C2)C[C@H](O)[C@@H]1O[C@H]1C[C@H](O)[C@H](O[C@H]2C[C@H](O)[C@H](O[C@@H]3O[C@H](CO)[C@@H](O)[C@H](O)[C@H]3O)[C@@H](C)O2)[C@@H](C)O1 [DESLANOSIDE] | > 30 | – | – | – |
| CC(C)Cc1ccc([C@H](C)C(=O)O)cc1 [DEXIBUPROFEN] | – | > 30 | > 30 | – |
| CC[C@H]1OC(=O)[C@H](C)[C@@H](O[C@H]2C[C@@](C)(OC)[C@@H](O)[C@H](C)O2)[C@H](C)[C@@H](O[C@@H]2O[C@H](C)C[C@H](N(C)C)[C@H]2O)[C@](C)(O)C[C@@H](C)[C@@H]2N[C@@H](COCCOC)O[C@H]([C@H]2C)[C@]1(C)O [DIRITHROMYCIN] | > 30 | – | – | – |
| CCCCc1oc2ccc(NS(C)(=O)=O)cc2c1C(=O)c1ccc(OCCCN(CCCC)CCCC)cc1 [DRONEDARONE] | 7.76 | – | – | – |
| CNC[C@H](O)c1ccc(O)c(O)c1 [EPINEPHRINE] | – | > 30 | > 30 | – |
| CC(C)C(=O)Oc1ccc(CO)cc1[C@H](CCN(C(C)C)C(C)C)c1ccccc1 [FESOTERODINE] | 0.354 | – | – | – |
| Cc1onc(-c2c(F)cccc2Cl)c1C(=O)N[C@@H]1C(=O)N2[C@@H]1SC(C)(C)[C@@H]2C(=O)O [FLOXACILLIN] | – | > 30 | > 30 | – |
| COc1ccccc1OC1(C)OC(=O)c2ccccc2O1 (configuration not stated) [GUAIMESAL] | > 30 | > 30 | – | – |
| C[N+](C)(CCCCCC[N+](C)(C)C1c2ccccc2-c2ccccc21)C1c2ccccc2-c2ccccc21 [HEXAFLUORENIUM] | 7.41 | – | – | – |
| CCCCC(CC)CN1CN(CC(CC)CCCC)CC(C)(N)C1 (configuration not stated) [HEXETIDINE] | 9.85 | – | – | – |
| Cc1cc(=O)oc2cc(O)ccc12 [HYMECROMONE] | > 30 | – | – | – |

| SMILES | AC50 [1] [µM] | AC50 [2] [µM] | AC50 (Cannabinoid receptor 1) [µM] | other results |
| --- | --- | --- | --- | --- |
| CCCCCCCN(CC)CCCC(O)c1ccc(NS(C)(=O)=O)cc1 (configuration not stated) [IBUTILIDE] | – | > 30 | – | AC50 (Mu-type opioid receptor): > 30 µM |
| COc1cc(C(C)=O)ccc1OCCCN1CCC(c2noc3cc(F)ccc23)CC1 [ILOPERIDONE] | > 10 | > 30 | > 30 | AC50 [3]: 0.0785 µM |
| COc1c2occc2c(OC)c2c(=O)cc(C)oc12 [KHELLIN] | > 30 | – | – | – |
| CC(C)[C@@H]1CC[C@@H](C)C[C@H]1O [LEVOMENTHOL] | > 30 | – | – | – |
| COC(=O)[C@@H](N)Cc1ccc(O)c(O)c1 [MELEVODOPA] | 22.1 | – | – | – |
| C[N+]1(C)CCCC(OC(=O)C(O)(c2ccccc2)c2ccccc2)C1 (configuration not stated) [MEPENZOLATE] | > 30 | – | – | – |
| C=N[C@@H](C(=O)N[C@@H]1C(=O)N2[C@@H]1SC(C)(C)[C@@H]2C(=O)O)c1ccccc1 [METAMPICILLIN] | > 30 | – | – | – |
| O=C(NNCS(=O)(=O)O)c1ccncc1 [METHANIAZIDE] | > 30 | – | – | – |
| Cc1cc(=O)[nH]c(=S)[nH]1 [METHYLTHIOURACIL] | > 30 | – | – | – |
| CN(C)c1ccc(O)c2c1C[C@H]1C[C@H]3[C@H](N(C)C)C(O)=C(C(N)=O)C(=O)[C@@]3(O)C(O)=C1C2=O [MINOCYCLINE] | > 30 | – | – | – |
| CCNC(=O)/C=C(C)/C=C/C=C(C)/C=C/c1c(C)cc(OC)c(C)c1C [MOTRETINIDE] | 16.6 | – | – | – |
| CNC(=C[N+](=O)[O-])NCCSCc1csc(CN(C)C)n1 [NIZATIDINE] | – | > 10 | – | AC50 (Mu-type opioid receptor): > 30 µM |
| CN1Cc2c(N)cccc2C(c2ccccc2)C1 (configuration not stated) [NOMIFENSINE] | – | > 30 | > 30 | AC50 (Mu-type opioid receptor): 1.4 µM |
| C=CC(=O)Nc1cccc(Oc2nc(Nc3ccc(N4CCN(C)CC4)cc3)nc3ccsc23)c1 [OLMUTINIB] | 2.29 | – | – | – |
| CCCCC1C(=O)N(c2ccccc2)N(c2ccc(O)cc2)C1=O (configuration not stated) [OXYPHENBUTAZONE ANHYDROUS] | > 30 | – | – | – |
| O=C(O)CN(CCN(CC(=O)O)CC(=O)O)CCN(CC(=O)O)CC(=O)O [PENTETIC ACID] | > 30 | – | – | – |
| Nc1cccc2c1C(=O)N(C1CCC(=O)NC1=O)C2=O (configuration not stated) [POMALIDOMIDE] | > 30 | – | – | – |
| CCCc1cc(=O)[nH]c(=S)[nH]1 [PROPYLTHIOURACIL] | – | > 10 | – | – |
| Cn1cc(C(=O)[C@@H]2CCc3nc[nH]c3C2)c2ccccc21 [RAMOSETRON] | – | > 30 | > 30 | AC50 (Mu-type opioid receptor): > 30 µM |
| C[Se]CC[C@H](N)C(=O)O [SELENOMETHIONINE] | > 30 | – | – | – |
| S=P(N1CC1)(N1CC1)N1CC1 [THIOTEPA] | – | > 30 | > 30 | – |
| Cc1ccsc1C(=CCCN1CCC[C@@H](C(=O)O)C1)c1sccc1C [TIAGABINE] | > 30 | – | – | – |
| Cc1ccccc1C(=O)Nc1ccc(C(=O)N2CCCC(O)c3cc(Cl)ccc32)c(C)c1 (configuration not stated) [TOLVAPTAN] | 11.3 | – | – | – |
| CC(C)C[C@H](NC(=O)[C@@H](O)[C@H](N)Cc1ccccc1)C(=O)O [UBENIMEX] | – | – | > 30 | AC50 (Mu-type opioid receptor): > 30 µM |
| CC[C@]12CCCN3CCc4c(n(c5ccccc45)[C@@](O)(C(=O)OC)C1)[C@@H]32 [VINCAMINE] | > 30 | – | – | – |
| COc1cc(C(=O)NS(=O)(=O)c2ccccc2C)ccc1Cc1cn(C)c2ccc(NC(=O)OC3CCCC3)cc12 [ZAFIRLUKAST] | – | > 10 | > 30 | – |
